The results in this text go back to patent publication US4336400A, “3-(Hydroxy or hydroxymethyl)-4-hydroxy-alpha(aminomethyl)benzyl alcohols and methods of use” (Sterling Drug Inc., priority 1978, dated 1982).

Several values for one entry are separate records, joined by “and”; a condition that tells them apart may be missing. Identical values can stand only once. Counter-ions that a name gives are not always drawn.

Series [1] has as its system guinea pig bronchioles constricted by carbachol. In words: Bronchodilator Test Method II: in vitro, perfused guinea pig lung, bronchioles constricted by carbachol. The following applies: for Bronchodilator Action, Duration (min) Mean: dose mcg(base) given. The procedure: Bronchodilator activity was tested in anesthetized dogs (Test Method I) and in vitro on the perfused guinea pig lung (Test Method II), using the following pharmacological test procedures:
In this method bronchodilator activity in vitro was determined by testing the effect of graded doses of the test compounds on guinea pig bronchioles constricted by carbachol, using the technique reported by Sollman and von Oettingen, Proc. Soc. Exp. Biol. Med., 25, 692 (1928) as modified by Tainter, Pedden, and James, J. Pharm. Exp. Ther., 51, 371 (1934) and by Luduena, von Euler, Tuller, and Lands, Arch. Intern. Pharmacol., III, 392 (1957).

Another series deals with diastolic blood pressure. As to the kind of experiment: Effect on diastolic blood pressure in the anesthetized dog, intravenous. The series is classed as in vivo. The note with it: i.v., dose (salt) mcg/kg. The protocol: Injections were repeated at 20-30 minutes.
Cardiovascular Studies The effect of a rapid intravenous injection on the heart rate was conducted in anesthetized dogs under normal respiration. A few open-chest dogs were also tested. Increase in heart rate was measured by using an electrocardiograph attached to the dog. Readings were taken every 0.5-1 minutes for the first 10 minutes and every 2-5 minutes thereafter until recovery. In some cases, several doses and more than one compound were tested alternately in the same dog. The blood pressure effect was simultaneously recorded.

The nature of series [2]: Solubility, pH of solution and precipitation. Type of series: physicochemical. The following applies: for precipitation on dilution of a 1 percent dimethyl sulfoxide solution with three volumes of water: 1 percent solution in dimethyl sulfoxide; for precipitation on dilution of a 1 percent glycerol formal solution with three volumes of water: 1 percent solution in glycerol formal; for precipitation when the pH was adjusted to 7.0 with N/10 sodium hydroxide: 1 percent aqueous solution, pH 7.0.

Another series relates to normal airway pressure. As to the kind of experiment: Control bronchoconstriction in anesthetized dog. The series is classed as in vivo. The note with it: i.v., carbachol 4 to 6 micrograms per kilogram, histamine diphosphate 35 to 45 micrograms per kilogram, majority of test animals. The protocol:
Test Method I: Male and female dogs weighing 9-18 kg. each were anesthetized with pentobarbital sodium (30 mg./kg. i.v.). Each animal, with thorax opened at the mid-sternum, was maintained under artificial ventilation using a constant volume pump (250 ml./stroke; ten to twelve strokes per minute) attached to the tracheal cannula. The flow of air was controlled by a glass or plastic valve which closed and opened respectively on inflow and outflow of the air to and from the tracheal cannula. Bronchoconstriction and/or bronchodilatation were measured from changes in the basal airway pressure reflected by a transducer attached to the sidearm of the cannula relayed to a polygraph.
Control bronchoconstrictions were induced by intravenous injections of carbachol (choline chloride carbamate) in doses ranging from 4 to 6 micrograms per kilogram or histamine diphosphate in doses ranging from 35 to 45 micrograms per kilogram.

In the case of `CC(C)C(=O)Oc1ccc(C(O)CNC(C)(C)C)cc1OC(=O)C(C)C.Cl` (stereo not drawn) [Example 2, 3,4-bis(isobutyryloxy)-alpha-(tert-butylaminomethyl)-benzyl alcohol hydrochloride], in series [1] (Doryl conc. 1:5 million), the ED50 is given as 0.28 mcg(base) and the “Bronchodilator Action, Duration (min) Mean” value (from here on “Bronchodilator Action”) was found to be 9 ± 1.1 min.

With `CC(C)CC(=O)Oc1cc(C(O)CNC(C)(C)C)ccc1OC(=O)C(C)(C)C.Cl` (stereo not drawn) [Example 71, 3-(isovaleryloxy)-4-(pivalyloxy)-alpha-(tert-butylaminomethyl)benzyl alcohol hydrochloride], in series [1] (Doryl conc. 1:5 million), the ED50 was 0.63 mcg(base) and the “Bronchodilator Action” value is reported as 26 min.

As for `Cc1ccc(C(=O)Oc2ccc(C(O)CNC(C)(C)C)cc2OC(=O)c2ccc(C)cc2)cc1` (stereo not drawn) [Example 30, 3,4-bis(p-toluyloxy)-alpha-(tert-butylaminomethyl)-benzyl alcohol methanesulfonate], the “Mean Decrease in Diastolic Blood Pressure in %” value in the series on diastolic blood pressure was 2% and 11% and 11.5%.

As for `CC(C)(C)NCC(O)c1ccc(OC(=O)c2ccccc2)c(OC(=O)c2ccccc2)c1.Cl` (stereo not drawn) [Example 29, 3,4-bis(benzoyloxy)-alpha-(tert-butylaminomethyl)-benzyl alcohol hydrochloride], in series [1] (Doryl conc. 1:5 million), the ED50 is recorded as 1.1 mcg(base) and the “Bronchodilator Action” value is recorded as 34 ± 6.4 min. In series [2], the “precipitation on dilution of a 1 percent dimethyl sulfoxide solution with three volumes of water” value is on record as “no precipitate formed” and the “precipitation on dilution of a 1 percent glycerol formal solution with three volumes of water” value is “no precipitate formed”.

With `CCCC(=O)Oc1ccc(C(O)CNC(C)(C)C)cc1OC(=O)CCC.Cl` (stereo not drawn) [Example 1, 3,4-bis(butyryloxy)-alpha-(tert-butylaminomethyl)-benzyl alcohol hydrochloride], in series [1] (Doryl conc. 1:5 million), the ED50 is recorded as 0.23 mcg(base) and the “Bronchodilator Action” value is given as 9 ± 1.0 min. For the same compound, in series [2], the “precipitation when the pH was adjusted to 7.0 with N/10 sodium hydroxide” value is “a precipitate formed”.

`CC(C)(C)NCC(O)c1ccc(OC(=O)C2(C)CC2)c(OC(=O)C2(C)CC2)c1.Cl` (stereo not drawn) [Example 13, 3,4-bis(1-methylcyclopropanecarbonyloxy)-alpha-(tert-butylaminomethyl)benzyl alcohol hydrochloride]: in series [1] (Doryl conc. 1:5 million), the ED50 is recorded as 0.45 mcg(base) and the “Bronchodilator Action” value amounted to 15 ± 1.7 min.

Take `C[N+](C)(C)CCOC(N)=O` [carbachol, choline chloride carbamate]: the “increase in the normal airway pressure or amplitude” value with normal airway pressure is on record as 100-200%.

`COc1ccc(C(=O)Oc2ccc(C(O)CNC(C)(C)C)cc2COC(C)=O)cc1` (stereo not drawn) [Example 151, 3-(acetoxymethyl)-4-(p-anisoyloxy)-alpha-(tert-butylaminomethyl)benzyl alcohol methanesulfonate]: the “Mean Decrease in Diastolic Blood Pressure in %” value in the series on diastolic blood pressure is recorded as 10%.

In the case of `CCC(C)CC(=O)Oc1ccc(C(O)CNC(C)(C)C)cc1OC(=O)CC(C)CC.Cl` (stereo not drawn) [Example 6, 3,4-bis(3-methylpentanoyloxy)-alpha-(tert-butylaminomethyl)benzyl alcohol hydrochloride], in series [1] (Doryl conc. 1:5 million), the ED50 is on record as 1.3 mcg(base) and the “Bronchodilator Action” value was found to be 43 ± 3.7 min.

Take `CC(C)CC(=O)Oc1ccc(C(O)CNC(C)(C)C)cc1OC(=O)CC(C)C.Cl` (stereo not drawn) [Example 3, 3,4-bis(isovaleryloxy)-alpha-(tert-butylaminomethyl)benzyl alcohol hydrochloride]: in series [1] (Doryl conc. 1:5 million), the ED50 is 0.6 mcg(base) and the “Bronchodilator Action” value is 18 ± 4 min. In addition, in series [2], the “precipitation when the pH was adjusted to 7.0 with N/10 sodium hydroxide” value is “a precipitate formed”.

`CC(C)(C)NCC(O)c1ccc(O)c(O)c1` (stereo not drawn) [Ref. Cpd. I, 3,4-Dihydroxy-alpha-(tert-butylaminomethyl)benzyl alcohol, reference compound]: in series [1] (Doryl conc. 1:5 million), the ED50 is listed as 0.18 mcg(base) and the “Bronchodilator Action” value is 5 ± 1.4 min.

As to `CCC(C)C(=O)Oc1ccc(C(O)CNC(C)(C)C)cc1OC(=O)C(C)CC.Cl` (stereo not drawn) [Example 4, 3,4-bis(2-methylbutanoyloxy)-alpha-(tert-butylaminomethyl)benzyl alcohol hydrochloride], in series [1] (Doryl conc. 1:5 million), the ED50 is recorded as 0.45 mcg(base) and the “Bronchodilator Action” value is reported as 20 ± 3 min.

Regarding `CC(C)(C)NCC(O)c1ccc(OC(=O)C(C)(C)C)c(OC(=O)C(C)(C)C)c1.Cl` (stereo not drawn) [Example 5, 3,4-bis(pivalyloxy)-alpha-(tert-butylaminomethyl)-benzyl alcohol hydrochloride], in series [1] (Doryl conc. 1:5 million), the ED50 was 0.94 mcg(base) and the “Bronchodilator Action” value is 18 ± 4.2 min.

Take `COc1ccc(C(=O)Oc2ccc(C(O)CNC(C)(C)C)cc2OC(=O)c2ccc(OC)cc2)cc1.Cl` (stereo not drawn) [Example 33, 3,4-bis(p-anisoyloxy)-alpha-(tert-butylaminomethyl)-benzyl alcohol hydrochloride]: in series [1] (Doryl conc. 1:5 million), the ED50 is on record as 6.9 mcg(base) and the “Bronchodilator Action” value was found to be 32 ± 5 min. Also, in series [2], the “precipitation on dilution of a 1 percent dimethyl sulfoxide solution with three volumes of water” value is recorded as “no precipitate formed” and the “precipitation on dilution of a 1 percent glycerol formal solution with three volumes of water” value is on record as “no precipitate formed”.

Consider `CC(C)(C)NCC(O)c1ccc(OC(=O)C2CCCCC2)c(OC(=O)C2CCCCC2)c1.Cl` (stereo not drawn) [Example 15, 3,4-bis(cyclohexanecarbonyloxy)-alpha-(tert-butylaminomethyl)benzyl alcohol hydrochloride], for which, in series [1] (Doryl conc. 1:5 million), the ED50 is 1.3 mcg(base) and the “Bronchodilator Action” value worked out at 53 ± 7 min. The “precipitation on dilution of a 1 percent dimethyl sulfoxide solution with three volumes of water” value in series [2] is listed as “no precipitate formed”.

With `NCCc1c[nH]cn1` [histamine diphosphate], the “increase in the normal airway pressure or amplitude” value with normal airway pressure was 100-200%.

As to `CCC(NC(C)(C)C)C(O)c1ccc(OC(=O)c2ccc(C)cc2)c(OC(=O)c2ccc(C)cc2)c1` (stereo not drawn) [Example 144, 3,4-bis(p-toluyloxy)-alpha-[1-(tert-butylamino)-propyl]benzyl alcohol hydrochloride], the “Bronchodilator Action” value in series [1] (Doryl conc. 1:5 million) was 83 ± 26.8 min.

On to `COc1ccc(C(=O)Oc2ccc(C(O)CNC(C)(C)C)cc2OC(=O)c2ccccc2)cc1.Cl` (stereo not drawn) [Example 143, 3-benzoyloxy-4-(p-anisoyloxy)-alpha-(tert-butylaminomethyl)benzyl alcohol hydrochloride], for which, in series [1] (Doryl conc. 1:10 million), the ED50 is 1.53 mcg(base) and the “Bronchodilator Action” value is 29.2 ± 10.2 min.

Consider `CC(C)(C)CC(=O)Oc1ccc(C(O)CNC(C)(C)C)cc1OC(=O)CC(C)(C)C.Cl` (stereo not drawn) [Example 7, 3,4-bis(3,3-dimethylbutanoyloxy)-alpha-(tert-butylaminomethyl)benzyl alcohol hydrochloride], for which, in series [1] (Doryl conc. 1:5 million), the ED50 is recorded as 23 mcg(base) and the “Bronchodilator Action” value is 85 ± 17 min.

`CC(C)NCC(O)c1ccc(O)c(O)c1` (stereo not drawn) [Ref. Cpd. II, 3,4-Dihydroxy-alpha-(isopropylaminomethyl)benzyl alcohol, reference compound]: in series [1] (Doryl conc. 1:5 million), the “Bronchodilator Action” value was determined as 5 min.

In the case of `CCC(NC1CCCC1)C(O)c1ccc(OC(=O)CC(C)C)c(OC(=O)CC(C)C)c1.Cl` (stereo not drawn) [Example 138, 3,4-bis(isovaleryloxy)-alpha-[1-(cyclopentylamino)propyl]benzyl alcohol hydrochloride], in series [1] (Doryl conc. 1:5 million), the ED50 is 0.46 mcg(base) and the “Bronchodilator Action” value is given as 25.4 ± 3.5 min.
